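GI50 marks 50% less growth. TGI is the concentration that stops growth completely.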
Key:
Assay in all cases: NCI-60 cell line screen, 384-well format
NCI-H226 lung = test system: NCI-H226 lung
MDA-MB-435 melanoma = test system: MDA-MB-435 melanoma
NCI-H522 lung = test system: NCI-H522 lung
SF-295 CNS = test system: SF-295 CNS
NCI-H322M lung = test system: NCI-H322M lung
EKVX NSCLC = test system: EKVX NSCLC
K-562 leukemia = test system: K-562 leukemia
HCC-2998 colon = test system: HCC-2998 colon
M14 melanoma = test system: M14 melanoma
MALME-3M melanoma = test system: MALME-3M melanoma
UO-31 renal = test system: UO-31 renal
SK-MEL-5 melanoma = test system: SK-MEL-5 melanoma
SNB-19 CNS = test system: SNB-19 CNS

Which results are given for `CCc1c(C#N)c(SC(C(N)=O)c2ccccc2)nc(N2CCC(N)CC2)c1C#N` (stereo unspecified)?
GI50 (NCI-H226 lung): 12.4 µM; TGI (NCI-H226 lung): 25 µM; GI50 (MDA-MB-435 melanoma): 16.8 µM; TGI (MDA-MB-435 melanoma): 30.5 µM; GI50 (NCI-H522 lung): 8.33 µM; TGI (NCI-H522 lung): 20.9 µM; GI50 (SF-295 CNS): 13.2 µM; TGI (SF-295 CNS): 26 µM; GI50 (NCI-H322M lung): 15.9 µM; TGI (NCI-H322M lung): 29.4 µM; GI50 (EKVX NSCLC): 15.4 µM; TGI (EKVX NSCLC): 28.8 µM; GI50 (K-562 leukemia): 5.63 µM; TGI (K-562 leukemia): 18.3 µM; GI50 (HCC-2998 colon): 8.72 µM; TGI (HCC-2998 colon): 20.9 µM; GI50 (M14 melanoma): 10.4 µM; TGI (M14 melanoma): 22.2 µM; GI50 (MALME-3M melanoma): 4.17 µM; TGI (MALME-3M melanoma): 16.9 µM; GI50 (UO-31 renal): 18.1 µM; TGI (UO-31 renal): 33 µM; GI50 (SK-MEL-5 melanoma): 11 µM; TGI (SK-MEL-5 melanoma): 23 µM; GI50 (SNB-19 CNS): 13.9 µM; TGI (SNB-19 CNS): 27 µM

Source: PubChem BioAssay (NCI)
